Consider 14 compounds from patent US5502035A, “N-terminus modified analogs of LHRH” (Tap Holdings Inc., priority 1994, dated 1996).

Non-standard residues stand in square brackets, D forms with d. Residues, ends and D or L forms follow the SMILES beside them. *: point of attachment. dPhe(4-Cl) = N[C@H](Cc1ccc(Cl)cc1)C(=O)O; d2Nal = N[C@H](Cc1ccc2ccccc2c1)C(=O)O; d(hCit) = NC(=O)NCCCC[C@@H](N)C(=O)O; Lys(iPr) = CC(C)NCCCC[C@H](N)C(=O)O; NMeY = CN[C@@H](Cc1ccc(O)cc1)C(=O)O; d3Pal = N[C@H](Cc1cccnc1)C(=O)O; Nicotinoyl = O=C(c1cccnc1)*; X1 = O=C([C@@H]1CCCO1)*; GABA = NCCCC(=O)O; βAla = NCCC(=O)O; Sar = CNCC(=O)O

This test has as its target T1, LHRH (Rattus norvegicus, UniProt P30969).
T1 construct: endogenous in cells; host or cells: rat pituitary cells (own knowledge of the cited Haviv 1989 method)
T1 sequence (P30969 1-327): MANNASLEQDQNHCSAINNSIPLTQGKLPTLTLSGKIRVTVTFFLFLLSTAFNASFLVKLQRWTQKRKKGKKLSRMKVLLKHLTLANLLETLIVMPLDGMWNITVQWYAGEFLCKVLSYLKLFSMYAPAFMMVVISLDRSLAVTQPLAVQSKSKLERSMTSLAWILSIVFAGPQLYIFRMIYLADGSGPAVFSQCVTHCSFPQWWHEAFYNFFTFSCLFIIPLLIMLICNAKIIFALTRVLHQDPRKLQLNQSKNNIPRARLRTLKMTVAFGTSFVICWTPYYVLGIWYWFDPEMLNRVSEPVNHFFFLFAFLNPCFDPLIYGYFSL
The test is described as follows: in vitro test for LHRH antagonist potency (pA2). It counts as cell-based. As to conditions: negative logarithm of the antagonist concentration required to shift the response curve produced by the agonist leuprolide to two-fold higher concentration. In a few lines: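 Rat LHRH receptor in vitro functional test; pA2 = negative log of the antagonist concentration shifting the leuprolide agonist response curve to two-fold higher concentration.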

As for `CC(C)C[C@H](NC(=O)[C@@H](CCCCNC(=O)c1cccnc1)NC(=O)[C@H](Cc1ccc(O)cc1)N(C)C(=O)[C@H](CO)NC(=O)[C@H](Cc1cccnc1)NC(=O)[C@@H](Cc1ccc(Cl)cc1)NC(=O)[C@@H](Cc1ccc2ccccc2c1)NC(=O)CNC(=O)[C@@H]1CCCO1)C(=O)N[C@@H](CCCCNC(C)C)C(=O)N1CCC[C@H]1C(=O)N[C@H](C)C(N)=O` [Example 83, N (S)-2-Tetrahydrofuroyl-Gly-D2Nal-D4ClPhe-3Pal-Ser-NMeTyr-DLys(N-epsilon-Nicotinyl) -Leu-Lys(N-epsilon-Isopropyl)-Pro-DAlaNH2], the Kb is 0.0112 nM. Regarding `CC(C)C[C@H](NC(=O)[C@H](CCCCNC(=O)c1cccnc1)NC(=O)[C@H](Cc1ccc(O)cc1)N(C)C(=O)[C@H](CO)NC(=O)[C@@H](Cc1cccnc1)NC(=O)[C@@H](Cc1ccc(Cl)cc1)NC(=O)[C@@H](Cc1ccc2ccccc2c1)NC(=O)CNC(=O)[C@@H]1CCCO1)C(=O)N[C@@H](CCCCNC(C)C)C(=O)N1CCC[C@H]1C(=O)N[C@H](C)C(N)=O` [Example 85, N (S)-2-Tetrahydrofuroyl-Gly-D2Nal-D4ClPhe-D3Pal-Ser-NMeTyr-Lys(N-epsilon-Nicotinyl) -Leu-Lys(N-epsilon-Isopropyl)-Pro-DAlaNH2], the Kb is 0.0112 nM. For the compound `CC(C)C[C@H](NC(=O)[C@@H](CCCCNC(=O)c1cccnc1)NC(=O)[C@H](Cc1ccc(O)cc1)N(C)C(=O)[C@H](CO)NC(=O)[C@@H](Cc1cccnc1)NC(=O)[C@H](Cc1ccc(Cl)cc1)NC(=O)[C@@H](Cc1ccc2ccccc2c1)NC(=O)CNC(=O)[C@@H]1CCCO1)C(=O)N[C@@H](CCCCNC(C)C)C(=O)N1CCC[C@H]1C(=O)N[C@H](C)C(N)=O` [Example 86, N (S)-2-Tetrahydrofuroyl-Gly-D2Nal-4ClPhe-D3Pal-Ser-NMeTyr-DLys(N-epsilon-Nicotinyl) -Leu-Lys(N-epsilon-Isopropyl)-Pro-DAlaNH2], the antagonist dissociation constant (Kb) was 0.141 nM. As for `CC(C)C[C@@H](NC(=O)[C@@H](CCCCNC(=O)c1cccnc1)NC(=O)[C@H](Cc1ccc(O)cc1)N(C)C(=O)[C@H](CO)NC(=O)[C@@H](Cc1cccnc1)NC(=O)[C@@H](Cc1ccc(Cl)cc1)NC(=O)[C@@H](Cc1ccc2ccccc2c1)NC(=O)CNC(=O)[C@@H]1CCCO1)C(=O)N[C@@H](CCCCNC(C)C)C(=O)N1CCC[C@H]1C(=O)N[C@H](C)C(N)=O` [Example 87, N (S)-2-Tetrahydrofuroyl-Gly-D2Nal-D4ClPhe-D3Pal-Ser-NMeTyr-DLys(N-epsilon-Nicotinyl) -DLeu-Lys(N-epsilon-Isopropyl)-Pro-DAlaNH2], the Kb was 0.269 nM. For the compound `CC(C)C[C@H](NC(=O)[C@@H](CCCCNC(=O)c1cccnc1)NC(=O)[C@H](Cc1ccc(O)cc1)N(C)C(=O)[C@H](CO)NC(=O)[C@@H](Cc1cccnc1)NC(=O)[C@@H](Cc1ccc(Cl)cc1)NC(=O)[C@@H](Cc1ccc2ccccc2c1)NC(=O)CNC(=O)[C@@H]1CCCO1)C(=O)N[C@@H](CCCCNC(C)C)C(=O)N1CCC[C@@H]1C(=O)N[C@H](C)C(N)=O` [Example 88, N (S)-2-Tetrahydrofuroyl-Gly-D2Nal-D4ClPhe-D3Pal-Ser-NMeTyr-DLys(N-epsilon-Nicotinyl) -Leu-Lys(N-epsilon-Isopropyl)-DPro-DAlaNH2], the Kb is 0.158 nM.

For `CC(C)C[C@H](NC(=O)[C@@H](CCCCNC(=O)c1cccnc1)NC(=O)[C@H](Cc1ccc(O)cc1)N(C)C(=O)[C@H](CO)NC(=O)[C@@H](Cc1cccnc1)NC(=O)[C@@H](Cc1ccc(Cl)cc1)NC(=O)[C@@H](Cc1ccc2ccccc2c1)NC(=O)CNC(=O)[C@@H]1CCCO1)C(=O)N[C@H](CCCCNC(C)C)C(=O)N1CCC[C@H]1C(=O)N[C@H](C)C(N)=O` [Example 89, N (S)-2-Tetrahydrofuroyl-Gly-D2Nal-D4ClPhe-D3Pal-Ser-NMeTyr-DLys(N-epsilon-Nicotinyl) -Leu-DLys(N-epsilon-Isopropyl)-Pro-DAlaNH2], the antagonist dissociation constant (Kb) is 0.132 nM.

Turning to `CC(C)C[C@H](NC(=O)[C@@H](CCCCNC(=O)c1cccnc1)NC(=O)[C@@H](Cc1ccc(O)cc1)N(C)C(=O)[C@H](CO)NC(=O)[C@@H](Cc1cccnc1)NC(=O)[C@@H](Cc1ccc(Cl)cc1)NC(=O)[C@@H](Cc1ccc2ccccc2c1)NC(=O)CNC(=O)[C@@H]1CCCO1)C(=O)N[C@@H](CCCCNC(C)C)C(=O)N1CCC[C@H]1C(=O)N[C@H](C)C(N)=O` [Example 90, N (S)-2-Tetrahydrofuroyl-Gly-D2Nal-D4ClPhe-D3pal-Ser-DNMeTyr-DLys(N-epsilon-Nicotinyl) -Leu-Lys(N-epsilon-Isopropyl)-pro-DAlaNH2], the Kb was 0.457 nM. Then `CC(C)C[C@H](NC(=O)[C@@H](CCCCNC(N)=O)NC(=O)[C@H](Cc1ccc(O)cc1)N(C)C(=O)[C@H](CO)NC(=O)[C@@H](Cc1cccnc1)NC(=O)[C@@H](Cc1ccc(Cl)cc1)NC(=O)[C@@H](Cc1ccc2ccccc2c1)NC(=O)CNC(=O)[C@@H]1CCCO1)C(=O)N[C@@H](CCCCNC(C)C)C(=O)N1CCC[C@H]1C(=O)N[C@H](C)C(N)=O` [Example 92, N (S)-2-Tetrahydrofuroyl-Gly-D2Nal-D4ClPhe-D3Pal-Ser-NMeTyr-DHcit-Leu-Lys(N- epsilon-Isopropyl) -Pro-DAlaNH2] (X1-G[d2Nal][dPhe(4-Cl)][d3Pal]S[NMeY][d(hCit)]L[Lys(iPr)]P[dA]-NH2), with 0.0105 nM; and `CC(C)C[C@H](NC(=O)[C@@H](CCCCNC(N)=O)NC(=O)[C@H](Cc1ccc(O)cc1)NC(=O)[C@H](CO)NC(=O)[C@@H](Cc1cccnc1)NC(=O)[C@@H](Cc1ccc(Cl)cc1)NC(=O)[C@@H](Cc1ccc2ccccc2c1)NC(=O)CNC(=O)[C@@H]1CCCO1)C(=O)N[C@@H](CCCCNC(C)C)C(=O)N1CCC[C@H]1C(=O)N[C@H](C)C(N)=O` [Example 93, N (S)-2-Tetrahydrofuroyl-Gly-D2Nal-D4ClPhe-D3Pal-Ser-Tyr-DHcit-Leu-Lys(N-epsilon-Isopropyl)-Pro-DAlaNH2] (X1-G[d2Nal][dPhe(4-Cl)][d3Pal]SY[d(hCit)]L[Lys(iPr)]P[dA]-NH2), with 0.00589 nM; and `CC(C)C[C@H](NC(=O)[C@@H](CCCCNC(=O)c1cccnc1)NC(=O)[C@H](Cc1ccc(O)cc1)N(C)C(=O)[C@H](CO)NC(=O)[C@@H](Cc1cccnc1)NC(=O)[C@@H](Cc1ccccc1)NC(=O)[C@@H](Cc1ccc2ccccc2c1)NC(=O)CNC(=O)[C@@H]1CCCO1)C(=O)N[C@@H](CCCCNC(C)C)C(=O)N1CCC[C@H]1C(=O)N[C@H](C)C(N)=O` [Example 94, N (S)-2-Tetrahydrofuroyl-Gly-D2Nal-DPhe-D3Pal-Ser-NMeTyr-DLys(Nic)-Leu-Lys(N-epsilon-Isopropyl)-Pro-DAlaNH2] (X1-G[d2Nal][dF][d3Pal]S[NMeY][dK](Nicotinoyl)L[Lys(iPr)]P[dA]-NH2), with 0.00832 nM. In the case of `CC(C)C[C@H](NC(=O)[C@@H](CCCCNC(N)=O)NC(=O)[C@H](Cc1ccc(O)cc1)NC(=O)[C@H](CO)NC(=O)[C@@H](Cc1cccnc1)NC(=O)[C@@H](Cc1ccc(Cl)cc1)NC(=O)[C@@H](Cc1ccc2ccccc2c1)NC(=O)CNC(=O)[C@@H]1CCCO1)C(=O)N[C@@H](CCCNC(=N)N)C(=O)N1CCC[C@H]1C(=O)N[C@H](C)C(N)=O` [Example 95, N-(S)-2-Tetrahydrofuroyl-Gly-D2Nal-D4ClPhe-D3Pal-Ser-Tyr-DHcit-Leu-Arg-Pro- DAlaNH2] (X1-G[d2Nal][dPhe(4-Cl)][d3Pal]SY[d(hCit)]LRP[dA]-NH2), the Kb is 0.00759 nM. `CC(C)C[C@H](NC(=O)[C@@H](CCCCNC(=O)c1cccnc1)NC(=O)[C@H](Cc1ccc(O)cc1)N(C)C(=O)[C@H](CO)NC(=O)[C@@H](Cc1cccnc1)NC(=O)[C@@H](Cc1ccc(Cl)cc1)NC(=O)[C@@H](Cc1ccc2ccccc2c1)NC(=O)CCNC(=O)[C@@H]1CCCO1)C(=O)N[C@@H](CCCCNC(C)C)C(=O)N1CCC[C@H]1C(=O)N[C@H](C)C(N)=O` [Example 96, N (S)-2-Tetrahydrofuroyl-Bala-D2Nal-D4ClPhe-D3Pal-Ser-NMeTyr-DLys(Nic)-Leu-Lys(Isp)-Pro-DAlaNH2] ({X1-βAla}-[d2Nal][dPhe(4-Cl)][d3Pal]S[NMeY][dK](Nicotinoyl)L[Lys(iPr)]P[dA]-NH2): the Kb is 0.0275 nM.

As for `CC(C)C[C@H](NC(=O)[C@@H](CCCCNC(=O)c1cccnc1)NC(=O)[C@H](Cc1ccc(O)cc1)N(C)C(=O)[C@H](CO)NC(=O)[C@@H](Cc1cccnc1)NC(=O)[C@@H](Cc1ccc(Cl)cc1)NC(=O)[C@@H](Cc1ccc2ccccc2c1)NC(=O)CCCNC(=O)[C@@H]1CCCO1)C(=O)N[C@@H](CCCCNC(C)C)C(=O)N1CCC[C@H]1C(=O)N[C@H](C)C(N)=O` [Example 97, N (S)-2-Tetrahydrofuroyl-Gaba-D2Nal-D4ClPhe-D3Pal-Ser-NMeTyr-DLys(Nic)-Leu-Lys(Isp)-Pro-DAlaNH2] ({X1-GABA}-[d2Nal][dPhe(4-Cl)][d3Pal]S[NMeY][dK](Nicotinoyl)L[Lys(iPr)]P[dA]-NH2), the antagonist equilibrium constant (Kb) was 0.0339 nM. As for `CC(C)C[C@H](NC(=O)[C@@H](CCCCNC(=O)c1cccnc1)NC(=O)[C@H](Cc1ccc(O)cc1)N(C)C(=O)[C@H](CO)NC(=O)[C@@H](Cc1cccnc1)NC(=O)[C@@H](Cc1ccc(Cl)cc1)NC(=O)[C@@H](Cc1ccc2ccccc2c1)NC(=O)CN(C)C(=O)[C@@H]1CCCO1)C(=O)N[C@@H](CCCCNC(C)C)C(=O)N1CCC[C@H]1C(=O)N[C@H](C)C(N)=O` [Example 99, N (S)-2-Tetrahydrofuroyl-Sar-D2Nal-D4ClPhe-D3Pal-Ser-NMeTyr-DLys(Nic),Leu-Lys(Isp)-Pro-DAlaNH2] (X1-[Sar][d2Nal][dPhe(4-Cl)][d3Pal]S[NMeY][dK](Nicotinoyl)L[Lys(iPr)]P[dA]-NH2), the antagonist dissociation constant (Kb) is 0.0117 nM.

For orientation: Kb means the equilibrium dissociation constant of an antagonist, usually derived from a functional assay.
